Measurements published in article PMC8308845, “Discovery of Novel Chemical Series of OXA-48 β-Lactamase Inhibitors by High-Throughput Screening” (Pharmaceuticals, 2021).
“And” between values parts separate entries of the source, which are not always exact repeats. Identical values can stand only once.

Legend:
E. coli ATCC25922 = experiment: MIC by broth microdilution, antibiotic-sensitive strain; type: cell-based; settings: Escherichia coli, no β-lactam, BLI tested at 32 µg/mL, read-out: MIC, BLI alone
Source text: (§1) To evaluate the capability of restoring β-lactam susceptibility, the two most promising representatives of SC_2 (ID3) and SC_7 (ID2) were screened alone and in combination with ampicillin (AMP) and IMP against sensitive and resistant Gram-negative bacteria. Avibactam and tazobactam were also included in the MIC characterization as BLI reference compounds. Specifically, we used E. coli ATCC25922 as antibiotic-sensitive strain, while E. coli ATCC BAA-2523 and K. pneumoniae ATCC BAA-2524 as β-lactam-resistant bacteria, producing OXA-48 carbapenemase.
(§2) Test compounds and tazobactam were tested at 32 µg/mL, while avibactam was applied at 4 µg/mL. […] Both antibiotics were selected for the combination study as they can be hydrolyzed by the target OXA-48 enzyme.
(§3) MIC values were determined by the broth dilution method and interpreted using published guidelines described by Clinical and Laboratory Standards Institute (CLSI).
(§4) All BLIs were dissolved in 100% DMSO and they were tested at a fixed concentration of 32 µg/mL and 1% of DMSO final concentration. Avibactam was used as reference β-lactamase inhibitor. All antimicrobials were prepared in line with CLSI susceptibility testing standards. AMP (USP # 1033000; batch no. K1M493) was dissolved at 5.12 mg/mL, IMP (USP # 1337809; batch no. R038R0) and avibactam (Biochem # NXL 104; batch no. 20180726) were dissolved at 1.28 mg/mL in the respective solvents recommended by CLSI (2). Solutions at 4X the final concentrations of the test range were made in Cation adjusted Mueller-Hinton broth (CA-MHB, BD # 212322; batch no. 6117994; Expiry date: 29.02.2020) by serial dilutions, and then diluted 2-fold with CA-MHB (for antimicrobials alone), or with the BLIs/avibactam (for combinations of new/reference inhibitors and antimicrobials). Moreover, all BLIs were tested alone at a fixed concentration of 32 μg/mL. The final concentration of DMSO in the test tubes was 1% for each different combination.
(§5) 50 μL of each well were then transferred from the masterblock into 96-well plates to whom were then added 50 μL of the final inoculum. MIC tests were performed by broth microdilution in line with CLSI susceptibility testing standards. Bacterial inocula were prepared at ca. 1 × 10^6 CFU/mL by diluting 100-fold a 0.5 McFarland suspension in CA-MHB with TES (TREK Diagnostic Systems, Product code: T3462; Batch: 356347; Expiry date: 12-Jun-2019). 50 μL of antibacterial solutions at 2 × the final concentrations were diluted 2-fold with 50 μL of inoculum to give a final inoculum of ca. 5 × 10^5 CFU/mL and desired test concentrations of antibacterial agents. Test plates were incubated according to CLSI guidelines and read visually. MIC values corresponded to the first well with no visible growth.

[1] = system: K. pneumoniae ATCC BAA-2524; experiment: MIC by broth microdilution, β-lactam-resistant strain producing OXA-48; type: cell-based, Klebsiella pneumoniae; settings: Klebsiella pneumoniae, ATCCBAA2524, no β-lactam, BLI tested at 32 µg/mL, read-out: MIC, BLI alone
Source text: as §1, §2, §3, §4, §5

E. coli ATCC BAA-2523 = experiment: as above; type: cell-based, Escherichia coli; settings: Escherichia coli, ATCCBAA2523, no β-lactam, BLI tested at 32 µg/mL, read-out: MIC, BLI alone
Source text: as §1, §2, §3, §4, §5

OXA-48 = molecular target: T1, OXA-48 (Klebsiella pneumoniae, UniProt Q6XEC0); experiment: OXA-48 primary enzymatic assay (nitrocefin substrate, fluorescence-quenching readout); type: biochemical; settings: dose–response, median of triplicate wells; 15 min preincubation, 25 µM nitrocefin
T1 construct: made in house; host or cells: E. coli BL21(DE3), T7 expression system
Method: After an initial pilot run (three plates, consisting of 960 randomly selected compounds), the primary screening of the subset plates was carried out at 20 µM in single point against OXA-48 enzyme in a nitrocefin-based assay, using the fluorescence-quenching readout. This enzymatic assay employs the cephalosporin nitrocefin as OXA-48 substrate and takes advantage of the fluorescent properties of white microtiter plates. Chromogenic nitrocefin is hydrolyzed by β-lactamases to yield a product with increased absorbance properties (~495 nm) that quenches the plate fluorescence by absorbing the plate’s emission light. In this assay, test compounds that inhibit OXA-48 catalytic activity are predicted to reduce nitrocefin quenching of plate fluorescence, resulting in a quantitative increase in well fluorescence (ON-system for inhibitors). The nitrocefin-based epi-absorbance readout system has been successfully applied in HTS campaigns on other β-lactamases, such as IMP-1 and VIM-2, with the identification of inhibitors belonging to novel scaffolds displaying a favourable degree of selectivity and sub-micromolar potency.
The screening results were expressed as activity percent. […] Overall, the primary assay robustness was good, with Robust Z Prime factor (RZ′) equal to 0.86.
In total, 256 active molecules (125 from the subset and 131 from the full set) were then assayed in dose–response at eight concentrations from 60 to 0.002 µM with interplate triplicate data points.
The blaOXA gene coding for the OXA-48 ß-lactamase, originally cloned from the K. pneumonia 11978 (a clinical isolate from Istanbul Faculty Hospital, Istanbul, Turkey) was overexpressed via a T7 expression system in E. coli BL21(DE3), and its product, native protein, (final yield of 30 mg/L of culture) was subjected to several purification steps, including ion-exchange chromatography with Q-Sepharose and 20 mM Tris-HCl buffer (pH 9.0), followed by chromatography with S-Sepharose columns and 100 mM sodium phosphate buffer (pH 5.8). Elution of the beta-lactamase was performed with a K2SO4 gradient. Peaks of beta-lactamase activity were concentrated and were dialyzed with 100 mM phosphate buffer (pH 7.0). The OXA-48 enzyme was purified to homogeneity (with a degree of purity around 95.4%.)-as measured by 12% SDS PAGE [23]. OXA-48 protein stock solution (2 mg/mL) was finally prepared in 20 mM Hepes (pH 8,1). OXA-48 β-lactamase specific activity was measured by following the hydrolysis of 100 μM nitrocefin (ε: 17,000 M-1 cm^−1 at 482 nm; Δε: 15,000 M-1 cm^−1 at 482 nm) and corresponding to 60.45 μmoles min^−1 mg^−1 of OXA-48 (kcat = 28.85 s^−1) enzyme. A MW of 28,147 g/mol, calculated from the enzyme sequence was confirmed by MALDI-TOF analysis with a Mass error of ± 2.8 Da.
The primary assay was developed to monitor the enzymatic activity of OXA-48 taking advantage of the spectroscopic properties of white microtiter plates (Optiplate-384, PerkinElmer, #6007290), as indicated by Zuck et al.. Nitrocefin is chromogenic substrate for beta-lactamases with λmax = 395 nm (yellow). Upon hydrolysis by OXA-48, nitrocefin yields (2R)-2-[(R)-carboxy[2-(thiophen-2-yl)acetamido]methyl]-5-[(E)-2-(2,4-dinitrophenyl)ethenyl]-3,6-dihydro-2H-1,3-thiazine-4-carboxylic acid, with increased absorbance properties at λmax = 495 nm. Spectroscopic features of the reaction product are exploited to quench the plate intrinsic fluorescence by absorbing the plate’s emission light, which can be monitored by exciting the reaction at 485 nm and recording the emission at 520 nm. Therefore, the primary assay for HTS was an ON-assay, in which compounds targeting OXA-48 were predicted to elicit an increase of the fluorescence signal.
The primary assay was performed in reaction buffer (20 mM Hepes pH 8.0, 12.5 mM NaCl, 0.005% BSA, 0.0005% Brij-35) in the presence of 0.0014 ng/µL OXA-48 and 25 µM nitrocefin in a final volume of 20 µL/well in 384 MTP format. […]

T1 sequence (Q6XEC0 23-265, looked up): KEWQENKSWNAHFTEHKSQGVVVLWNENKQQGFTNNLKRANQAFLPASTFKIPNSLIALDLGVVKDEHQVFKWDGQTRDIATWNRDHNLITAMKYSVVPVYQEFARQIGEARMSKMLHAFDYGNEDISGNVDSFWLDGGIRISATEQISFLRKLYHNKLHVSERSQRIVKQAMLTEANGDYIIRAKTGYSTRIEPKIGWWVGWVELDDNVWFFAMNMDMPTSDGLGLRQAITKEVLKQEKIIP

MIC (E. coli ATCC25922): > 32 µg/mL
MIC [1]: > 32 µg/mL
MIC (E. coli ATCC BAA-2523): > 32 µg/mL
AC50 (OXA-48): 723 nM and 720 nM
SMILES: O=C(O)c1ccc(/C=N/n2c(S)nnc2-c2ccc(Cl)cc2)cc1 [ID3]
